Results taken from patent publication EP1143981B1, “USE OF N-GLYCOLNEURAMINIC ACID AND ITS DERIVATIVES FOR THE MANUFACTURE OF A MEDICAMENT FOR THE TREATMENT OF HIV INFECTIONS” (Glukor, Inc., priority 1998, dated 2000).

Tests used:
HIV-1IIIB = assay: PBMC cell-based anti-HIV assay; details: PBMCs
Experimental: (§1) For the standard PBMC assay, PHA-P stimulated cells from at least two normal donors were pooled, diluted in fresh medium to a final concentration of 1 x 10^6 cells/mL, and plated in the interior wells of a 96 well round bottom microplate at 50 µL/well (5 x 10^4 cells/well). Test drug dilutions were prepared at a 2X concentration in microfuge tubes and 100 µL of each concentration was placed in appropriate wells in a standard format. A predetermined dilution of virus stock was placed in each test well (50 µL, final MOI ≅ 0.1). Wells with cells and virus alone were used for virus control. Separate plates were prepared identically without virus for drug cytotoxicity studies using an XTT assay system. The PBMC cultures were maintained for seven days following infection, at which time cell-free supernatant samples were collected and assayed for reverse transcriptase activity as described below.
Reverse Transcriptase Activity Assay: A microtiter based reverse transcriptase (RT) reaction was utilized as described by Buckheit et al., (1991), AIDS Research and Human Retroviruses, 7:295-302. Tritiated thymidine triphosphate (^3H-TTP) was suspended in distilled H2O at 5 Ci/mL. […] Opti-Fluor-O (Packard) was added to each sample and incorporated radioactivity was quantified utilizing a Wallac 1450 MicroBeta Plus liquid scintillation counter. […]

HIV-1ROJO = assay: Reverse transcriptase activity assay in infected PBMCs; format: cell-based; details: PBMCs
Source text: PBMCs were isolated from fresh human blood obtained commercially from the American Red Cross (Baltimore, Maryland). CEM-SS cells were obtained from the NIH AIDS reagent program. The low passage, lymphotropic clinical isolate ROJO was obtained from a pediatric patient attending the AIDS Clinic at the University of Alabama at Birmingham. Phytohemagglutinin (PHA-P) was obtained from Sigma Chemical Co. (St. Louis, MO) and recombinant IL-2 was obtained from Amgen (San Francisco, CA). As a positive control for antiviral assays, AZT was obtained from the NIH AIDS Reagent Program. HIV-1RF also was obtained from the NIH AIDS reagent program. Tritiated thymidine triphosphate was obtained from New England Nuclear (Boston, MA). Each plate in each experiment contained cell control wells (cells only), virus control wells (cells plus virus), drug toxicity control wells (cells plus drug only), drug colorimetric control wells (drug only) as well as experimental wells (drug plus cells plus virus).
Fresh human PBMCs were isolated from voluntary Red Cross donors, seronegative for HIV and HBV. Leukophoresed blood was diluted 1:1 with Dulbecco's PBS, layered over 14 mL of Ficoll-Hypaque density gradient in a 50mL centrifuge and then centrifuged for 30 minutes at 600 x g. Banded PBMCs were gently aspirated from the resulting interface and subsequently washed twice with PBS by low speed centrifugation. […] PBMCs were maintained in this medium at a concentration of 1-2 x 10^6 cells/mL with bi-weekly medium changes until used in the assay.
as §1
Virus Preparation: Pre-tittered aliquots of HIV-1ROJO and HIV-1RF were removed from the freezer (-80°C) and thawed to room temperature in a biological safety cabinet. The virus was resuspended and diluted into tissue culture medium such that the amount of virus added to each well in a volume of 50 µL will be the amount determined to give complete cell killing at 6 days post-infection.
Reverse Transcriptase Activity Assay: A microtiter based reverse transcriptase (RT) reaction was utilized as described by Buckheit et al., (1991), AIDS Research and Human Retroviruses, 7:295-302. Tritiated thymidine triphosphate (^3H-TTP) was suspended in distilled H2O at 5 Ci/mL. Poly rA and oligo dT were prepared as a stock solution which was kept at -20°C. RT reaction buffer was prepared fresh on a daily basis and contained 125 µL 1M EGTA, 125 µL dH2O, 110 µL 10% SDS, 50 µL 1M Tris (pH 7.4), 50 µL 1M DTT, and 40 µL 1M MgCl2. These three solutions were mixed together in a ratio of 2 parts ^3H-TTP, 1 part poly rA:oligo dT, and 1 part reaction buffer. Ten microliters of this reaction mixture were placed in a round bottom microtiter plate and 15 µL of virus containing supernatant were added and mixed. The plate was incubated at 37°C in a water bath with a solid support to prevent submersion of the plate and incubated for 60 minutes.

Cc1cn([C@H]2C[C@H](N=[N+]=[N-])[C@@H](CO)O2)c(=O)[nH]c1=O [AZT, reference compound]
IC50 (HIV-1IIIB): 2 nM | IC50 (HIV-1ROJO; 2hr pretreatment): 4 nM | IC50 (HIV-1ROJO; without pretreatment): 8 nM
